Non-standard residues stand in square brackets, D forms with d. Residues, ends and D or L forms follow the SMILES beside them. *: point of attachment. Biotin = O=C1N[C@H]2[C@H](CS[C@H]2CCCCC(=O)*)N1; Benzoyl(4-SO2F) = O=C(c1ccc(S(=O)(=O)F)cc1)*; pY = N[C@@H](Cc1ccc(OP(=O)(O)O)cc1)C(=O)O; Dap = NC[C@H](N)C(=O)O
Experiments:
Caco-2 cells = test: Cell viability by CCK8 assay; format: cell-based
Procedure: concentrations were added to each well, followed by a 90-min incubation at 37 °C. Diluted streptavidin-HRP solution was then added, followed by substrate solution to develop cover at 450 nm, and recorded by a plate reader. For MST test, a series diluted solutions of the cy5 labeled peptides were incubated with 400 nM Nck for 30 min and loaded into 16 capillaries. And then the samples were scanned and measured at 20% IR Laser power with 30 s laser-on time on a Monolith NT.115 instrument (NanoTemper Technologies). The data were analyzed by KD fitting model (KD) or hill fitting model […]
A Cell Line Stably Expressing N-WASP
To establish a stable pool of cells for N-WASP overexpression, Caco-2 cells were infected at 70-80% confluency with the virus diluted in a suitable medium supplemented with 8 µg/ml […]. After 48 h of incubation, infected cells were treated with puromycin for 7-14 days. The selection medium was changed every 2 days. Under the same treatment conditions, uninfected parental cells were used as selection controls. […]
Plasmid extraction was done using a plasmid DNA Maxi kit (Omega Bio-Tek, GA, USA). […] 48 h after transfection, cells were analyzed by fluorescent micrscopes. Cell viability was measured by a CCK8 assay (Thermo Fisher Scientific) according to its manual. […]
Figure S10. […] The viability was measured at 450 nm absorbance.

Nck-SH2 = test: Covalent reaction of p1 with wild-type Nck-SH2; format: binding; settings: cell lysate in vitro and in the cytosol
Procedure: Figure 5 Peptide p1 reacts with Lys 331. (a) MS/MS analysis of the conjugated site between p1 peptide and Nck-SH2 at Lys331. The corresponding mass data are shown in Figure S6 in the Supporting Information. […] Purified recombinant proteins were incubated with peptides in PBS buffer at 37 °C for 1 min (left) or 10 min (right). Molecular weight markers are shown in the middle. Red arrows indicate the covalent peptide–protein complex. […]
ether and purified by reverse-phase HPLC on a C18 column using acetonitrile/H2O (with 0.1% TFA) gradient on a reversed-phase C18 column, confirmed by MALDI-TOF MS analysis (Bruker, USA).
Pure peptides were lyophilized.
Crosslinking of Peptides with Nck in vitro
Purified peptides were incubated with the recombinantly expressed Nck protein (10 μM) in PBS buffer at 37 °C. After incubation, 5´ loading buffer was added into the solution and heated at 100 °C for 10 min. […]
The reaction mixture of Nck and p1 were digested with trypsin. Digested peptides were analyzed with an in-line EASY-spray source and nano-LC UltiMate 3000 high-performance liquid chromatography system (Thermo Fisher, USA) interfaced with an Elite mass spectrometer (Thermo Fisher, USA). The eluted peptides were detected by the Elite mass spectrometer, which was operated in data-dependent mode with one full MS scan at R = 60,000 (m/z = 200) mass, followed by MS/MS scans. […]

Nck/N-WASP/3pY = target: T1, Nck/N-WASP/3pY (Homo sapiens, UniProt P16333); test: Turbidity assay of Nck/N-WASP/3pY solution; format: biochemical; settings: Nck droplets; text cites Figures S12 and S13
T1 construct: GST (followed by PreScission/HRV 3C site) (N, cleaved yes); made in house; host or cells: E. coli BL21(DE3)
Procedure: Next, we explored the intervention of Nck/N-WASP/3pY LLPS using pY peptides (Figure 3a). Three pY-containing peptides extracted from different Tir sequences were synthesized, namely, peptides Y474, Y751, and Y147 (Figure 3b).
Figure 3 pY peptides disrupt Nck/N-WASP/3pY LLPS. (a) Sequences of synthetic pY peptides. […] Nck: 20 μM; N-WASP: 10 μM; 3pY: 10 μM. Scale bars, 20 μm. (c) Peptide Y474 rapidly decreases the turbidity of the Nck/N-WASP/3pY solution in around 20 min. Nck: 20 μM, N-WASP: 10 μM, 3pY: 10 μM. […] Nck: 20 μM, N-WASP: 10 μM, 3pY: 10 μM.
(Cytiva, Hong Kong) using a gradient from 100 to 500 mM NaCl and Superdex 75 10/300 GL column (Cytiva, Hong Kong) in 25 mM HEPES, 150 mM NaCl, and 2 mM βME at pH 7.5.
Proteins were buffer-exchanged through a Hi-trap desalting column (Cytiva, Hong Kong) to the reaction buffer. For Cy5 labeling, the buffer was 0.1 M sodium bicarbonate buffer at pH 8.3. For FITC labeling, the buffer was 50 mM sodium borate at pH 8.5. […]
Fluorescence Recovery after Photobleaching (FRAP) Assay
Fluorescence recovery in vitro was conducted with a DMi8 microscope (Leica, Germany). […]
The fluorescence intensity was quantified and normalized by ImageJ.
Fluorescence recovery after photobleaching experiments inside mammalian cells was conducted with a two-photon imaging system using a custom-built upright microscope, based on a previously used imaging setup. […]

CC[C@H](C)[C@H](NC(=O)[C@H](Cc1c[nH]cn1)NC(=O)[C@H](CCC(=O)O)NC(=O)[C@H](CCC(=O)O)NC(=O)CCCC[C@@H]1SC[C@@H]2NC(=O)N[C@@H]21)C(=O)N[C@@H](Cc1ccc(OP(=O)(O)O)cc1)C(=O)N[C@@H](CNC(=O)c1ccc(S(=O)(=O)F)cc1)C(=O)N[C@@H](CCC(=O)O)C(=O)N[C@H](C(=O)N[C@@H](C)C(=O)N[C@@H](C)C(=O)N[C@@H](CC(=O)O)C(N)=O)C(C)C [p1] (Biotin-EEHI[pY][Dap](Benzoyl(4-SO2F))EVAAD-NH2; N-terminus and C-terminus assumed) was tested, and the cytotoxicity (Caco-2 cells; CCK8, p1 0.3125-10 μM with L17E 40 μM for 3 h, 48 h incubation) was “did not cause noticeable cytotoxicity”, the “cell physiology or toxicity changes from side reactions of sulfonyl fluoride” value (Caco-2 cells; inside cells) was “did not cause noticeable changes in the cell physiology or toxicity” and the “reactivity with Nck-SH2” value (Nck-SH2) was “high reactivity with Nck-SH2”. The “reduction of solution turbidity, p1 and Y474 compared” value (Nck/N-WASP/3pY) was “reduce the turbidity of the solution”.

From paper PMC10755736, “Modulating Liquid–Liquid Phase Separation of Nck Adaptor Protein against Enteropathogenic Escherichia coli Infection” (ACS Central Science, 2023)
